The source of these data is patent publication US20250019369A1, “N-(4-aminocyclohexyl)pyrimidine-4-carboxamide derivatives as CD38 inhibitors” (Cerevance, Inc., priority 2021, published 2025).

Where a name gives a salt, the structure may show the parent alone. Read-outs that look alike come from different tables or passages of the source. Bounds are passed on as bounds.

One data set deals with Recombinant mouse CD38 (Mus musculus (Mouse), UniProt P56528). As to the kind of experiment: Mouse CD38 hydrolase assay (fluorescence, ε-NAD substrate). The data set is classed as biochemical. The note with it: recombinant mouse CD38 0.4 nM, 12 μM ε-NAD, 30 min preincubation at 25° C., pH 7.4. The procedure:
(§1) The ability of test compounds to inhibit mouse CD38 hydrolase activity was measured in a fluorescence-based assay using non-physiological NAD^+ substrate analogue 1,N^6-etheno NAD^+ (ε-NAD). Recombinant mouse CD38 (0.4 nM) was preincubated with test compounds in 384-well black microplates for 30 min at 25° C. in PBS (—Ca^2+/Mg^2+) containing 0.005% BSA (pH 7.4). CD38 hydrolase activity was initiated by addition of 12 μM ε-NAD, which yields the fluorescent product 1,N^6-etheno ADP-ribose. Formation of fluorescent product was followed using ClarioStar Plus (BMG) microplate reader by reading fluorescence (excitation λ=300 nm; emission λ=410 nm) at two time points, one immediately after substrate addition (t=0) and one at 6 min (t=6).
Data was analysed by subtracting the values detected at t=0 from t=6 to correct for variation in baseline fluorescence, and fluorescence values were converted to percent inhibition using the average of high signal (CD38 and ε-NAD) and low signal (CD38 and ε-NAD in the presence of a tool CD38 inhibitor) control wells. IC50 values were determined from a 10-point, half log concentration response curve with a four-parameter logistic equation.

For a further data set, the target named is Recombinant human CD38 (Homo sapiens (Human), UniProt P28907). Put plainly: Human CD38 hydrolase assay (fluorescence, ε-NAD substrate). The class given is biochemical. As to conditions: recombinant human CD38 0.8 nM, 4 μM ε-NAD, 30 min preincubation at 25° C., pH 7.4. The procedure: as §1, with “inhibit human” for “inhibit mouse”, “Recombinant human” for “Recombinant mouse”, “CD38 (0.8” for “CD38 (0.4”, “of 4” for “of 12”, “at 10” for “at 6”, “min (t=10).” for “min (t=6).”
Recombinant human CD38, sequence (P28907 whole entry): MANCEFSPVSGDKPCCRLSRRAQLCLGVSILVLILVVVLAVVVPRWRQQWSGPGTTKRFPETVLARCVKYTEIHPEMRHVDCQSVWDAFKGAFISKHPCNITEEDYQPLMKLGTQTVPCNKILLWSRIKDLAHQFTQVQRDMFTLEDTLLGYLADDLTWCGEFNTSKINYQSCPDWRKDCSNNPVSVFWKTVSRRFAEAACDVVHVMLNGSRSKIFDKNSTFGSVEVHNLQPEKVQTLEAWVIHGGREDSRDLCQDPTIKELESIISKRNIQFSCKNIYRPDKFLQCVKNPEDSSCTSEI
Data was analysed by subtracting the values detected at t=0 from t=10 to correct for variation in baseline fluorescence. Fluorescence values were converted to percent inhibition using the average of high signal (CD38 and ε-NAD) and low signal (CD38 and ε-NAD in the presence of a tool CD38 inhibitor) control wells. IC50 values were determined from a 10-point, half log concentration response curve with a four-parameter logistic equation.

Data set [1] can be described thus: PK brain permeability in C57BL/6 mice after single oral gavage. The class given is in vivo. The note with it: 2 hours post dose; for concentration at 2 h: po, 10 mg/kg. The procedure:
The distribution of compounds into the brain in vivo was determined in C57BL/6 mice following single oral (po) gavage administration.
Test compounds were formulated at 1 mg/mL in 0.5% HPMC E4 M, 0.2% Tween 80 in water to achieve solutions or homogenous suspensions suitable for po administration.
Formulations were administered to 3 male C57BL/6 mice at a volume of 10 mL/kg resulting in a dose level of 10 mg/kg. Blood samples were collected at 1 and 2 hours post dose into tubes containing K2EDTA as anticoagulant, processed to plasma and stored at −60° C. or lower until LC-MS/MS analysis. Brains were harvested 2 hours post dose, rinsed with saline, dried, weighed and homogenised under ice cold conditions. Brain homogenates were stored at −60° C. or lower until LC-MS/MS analysis.
Dose formulation concentrations were verified using a LC-UV or LC-MS/MS method. Test compound concentrations in plasma and brain homogenate were quantitatively determined using LC-MS/MS methods developed in individual matrices against calibration curves with QC samples included and acceptance criteria as per CRO SOPs. Concentrations in brain homogenate were corrected for the dilution factor used to prepare the homogenate to give concentrations in whole brain tissue.
Plasma and brain concentration versus time data were reported and plotted in excel. The brain to plasma ratio at 2 hours post dose was calculated for each animal using the following equation:
Brain:plasma=brain concentration (ng/g) at 2 h/plasma concentration (ng/mL) at 2 h
As only unbound test compound is available to exert an effect on the target, unbound plasma (Cp,u) and unbound brain (Cb,u) concentrations were calculated by correcting the total concentrations for the unbound fraction in plasma (fu,p) or brain (fu,b) determined from in vitro plasma protein or brain tissue binding assays using the following equations: […]
The unbound partitioning coefficient (Kpu,u) was then calculated based on the ratio of Cb,u to Cp,u using the following equation: […]
In these studies, mice were orally administrated a 10 mg/kg dose and sacrificed 2 hours post dose and tissue samples (brain homogenate and plasma) were analyzed subsequently as described above.

Recombinant mouse CD38, sequence (P56528 whole entry): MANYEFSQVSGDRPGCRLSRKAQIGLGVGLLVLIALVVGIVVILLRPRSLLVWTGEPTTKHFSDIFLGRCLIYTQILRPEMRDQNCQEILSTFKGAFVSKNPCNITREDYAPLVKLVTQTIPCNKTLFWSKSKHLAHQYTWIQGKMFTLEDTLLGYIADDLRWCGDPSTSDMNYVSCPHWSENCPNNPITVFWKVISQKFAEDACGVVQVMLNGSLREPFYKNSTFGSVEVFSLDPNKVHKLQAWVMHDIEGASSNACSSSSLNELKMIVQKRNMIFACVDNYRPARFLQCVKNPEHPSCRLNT

As usually defined, the IC50 is the concentration needed to halve the response being measured. Regarding `Cc1cc(C(=O)N[C@H]2CC[C@H](NCC(F)(F)F)CC2)nc(-c2cncn2C)n1` [Example 4, 6-methyl-2-(1-methyl-1H-imidazol-5-yl)-N-((1r,4r)-4-((2,2,2-trifluoroethyl)amino)cyclohexyl)pyrimidine-4-carboxamide], the IC50 on Recombinant mouse CD38 is not above 40 nM.
`Cc1cc(C(=O)N[C@H]2CC[C@H](NCC(F)(F)F)CC2)nc(-c2cn[nH]c2)n1` [Example 14, 6-methyl-2-(1H-pyrazol-4-yl)-N-((1r,4r)-4-((2,2,2-trifluoroethyl)amino)cyclohexyl)pyrimidine-4-carboxamide]: on Recombinant mouse CD38, the IC50 is not above 1000 nM.
As for `CCc1cc(C(=O)N[C@H]2CC[C@H](NCC(F)(F)F)CC2)nc(-n2ccnc2)n1` [Example 6, 6-ethyl-2-(1H-imidazol-1-yl)-N-((1r,4r)-4-((2,2,2-trifluoroethyl)amino)cyclohexyl)pyrimidine-4-carboxamide], the half-maximal inhibitory concentration (IC50) was not above 40 nM on Recombinant mouse CD38 and not above 100 nM on Recombinant human CD38.
Turning to `Cc1cc(C(=O)N[C@H]2CC[C@H](N3CC[C@H](F)C3)CC2)nc(-n2ccnc2)n1` [Example 12, N-((1s,4r)-4-((S)-3-fluoropyrrolidin-1-yl)cyclohexyl)-2-(1H-imidazol-1-yl)-6-methyl-pyrimidine-4-carboxamide], the IC50 on Recombinant mouse CD38 was not above 40 nM; at Recombinant human CD38, not above 100 nM.
As to `Cc1cc(C(=O)N[C@H]2CC[C@H](N3CC[C@@H](F)C3)CC2)nc(-n2ccnc2)n1` [Example 13, N-((1r,4r)-4-((R)-3-fluoropyrrolidin-1-yl)cyclohexyl)-2-(1H-imidazol-1-yl)-6-methyl-pyrimidine-4-carboxamide], the IC50 at Recombinant mouse CD38 was not above 40 nM; at Recombinant human CD38, not above 100 nM.
Take `O=C(N[C@H]1CC[C@H](NCC(F)(F)F)CC1)c1nc(-n2ccnc2)nc2cc[nH]c12` [Example 29, 2-(1H-imidazol-1-yl)-N-((1r,4r)-4-((2,2,2-trifluoroethyl)amino)cyclohexyl)-5H-pyrrolo[3,2-d]pyrimidine-4-carboxamide, reference compound]: the concentration at 2 h came to 1770 nM in data set [1] (male, C57BL/6, mouse, brain, read-out: total brain conc.); 224 nM in data set [1] (male, C57BL/6, mouse, brain, total corrected for unbound fraction in brain, read-out: free brain conc.); 11100 nM in data set [1] (male, C57BL/6, mouse, plasma, read-out: total plasma conc.); 1260 nM in data set [1] (male, C57BL/6, mouse, plasma, total corrected for unbound fraction in plasma, read-out: free plasma conc.). Also, the Kpu,u (unbound brain/plasma partition coefficient) at 2 h in data set [1] (male, C57BL/6, mouse, brain/plasma, oral 10 mg/kg, read-out: Kpu,u (unbound partitioning coefficient, Cb,u/Cp,u)) was 0.18. Moreover, in data set [1] (oral 10 mg/kg, comment on Table 3, with lower Kpu,u values), the “brain exposure (in words)” value is listed as “much reduced brain exposure”.
Regarding `Cc1cc(C(=O)N[C@H]2CC[C@H](NCC(F)F)CC2)nc(-c2cncs2)n1` [Example 8, N-((1r,4r)-4-((2,2-difluoroethyl)amino)cyclohexyl)-6-methyl-2-(thiazol-5-yl)pyrimidine-4-carboxamide], on Recombinant human CD38, the IC50 is not above 1000 nM.
For `Cc1cc(C(=O)N[C@H]2CC[C@H](NCC(F)F)CC2)nc(-c2cn[nH]c2)n1` [Example 15, N-((1r,4r)-4-((2,2-difluoroethyl)amino)cyclohexyl)-6-methyl-2-(1H-pyrazol-4-yl)pyrimidine-4-carboxamide], the results for the IC50 at Recombinant mouse CD38 and on Recombinant human CD38 were not above 1000 nM and not above 10000 nM, respectively.
In the same order, the values of `Cc1cc(C(=O)N[C@H]2CC[C@H](NCC(F)(F)F)CC2)nc(-n2cncc2C)n1` [Example 24, 6-methyl-2-(5-methyl-1H-imidazol-1-yl)-N-((1r,4r)-4-((2,2,2-trifluoroethyl)amino)cyclohexyl)pyrimidine-4-carboxamide] are not above 40 nM and not above 100 nM.
In the case of `CCN[C@H]1CC[C@H](NC(=O)c2cc(C)nc(-n3ccnc3)n2)CC1` [Example 19, N-((1r,4r)-4-(ethylamino)cyclohexyl)-2-(1H-imidazol-1-yl)-6-methyl-pyrimidine-4-carboxamide Formate], the IC50 on Recombinant mouse CD38 is not above 40 nM; at Recombinant human CD38, not above 100 nM.
In the same order, the values of `Cc1cc(C(=O)N[C@H]2CC[C@H](C(=O)NCC(F)(F)F)CC2)nc(-n2ccnc2)n1` [Example 26, 2-(1H-imidazol-1-yl)-6-methyl-N-((1r,4r)-4-((2,2,2-trifluoroethyl)carbamoyl)cyclohexyl)pyrimidine-4-carboxamide] are not above 40 nM and not above 40 nM.
Consider `Cc1cc(C(=O)N[C@H]2CC[C@H](NCCF)CC2)nc(-n2ccnc2)n1` [Example 9, N-((1r,4r)-4-((2-fluoroethyl)amino)cyclohexyl)-2-(1H-imidazol-1-yl)-6-methyl-pyrimidine-4-carboxamide formate], for which the IC50 at Recombinant mouse CD38 is not above 40 nM; at Recombinant human CD38 it was not above 1000 nM.
With `Cc1cc(C(=O)N[C@H]2CC[C@H](N(C)CC(F)(F)F)CC2)nc(-n2ccnc2)n1` [Example 7, 2-(1H-imidazol-1-yl)-6-methyl-N-((1r,4r)-4-(methyl(2,2,2-trifluoroethyl)amino)cyclohexyl)pyrimidine-4-carboxamide], on Recombinant human CD38, the IC50 is not above 100 nM.
The same measure, in the same setting: for `Cc1cc(C(=O)N[C@H]2CC[C@@H](N3CCC(F)(F)C3)CC2)nc(-n2ccnc2)n1` [Example 11, N-((1s,4s)-4-(3,3-difluoropyrrolidin-1-yl)cyclohexyl)-2-(1H-imidazol-1-yl)-6-methyl-pyrimidine-4-carboxamide] the value was not above 10000 nM.
Regarding `Cc1cc(C(=O)N[C@H]2CC[C@H](NCC(F)(F)F)CC2)nc(-c2cncs2)n1` [Example 5, 6-methyl-2-(thiazol-5-yl)-N-((1r,4r)-4-((2,2,2-trifluoroethyl)amino)cyclohexyl)pyrimidine-4-carboxamide], the figures for the IC50 on Recombinant mouse CD38 and at Recombinant human CD38 were not above 40 nM and not above 1000 nM, respectively.
In the case of `Cc1cc(C(=O)N[C@H]2CC[C@H](CNCC(F)(F)F)CC2)nc(-n2ccnc2)n1` [Example 25, 2-(1H-imidazol-1-yl)-6-methyl-N-((1r,4r)-4-(((2,2,2-trifluoroethyl)amino)methyl)cyclohexyl)pyrimidine-4-carboxamide], the IC50 at Recombinant mouse CD38 and at Recombinant human CD38 was not above 40 nM in each case.
Take `Cc1cc(C(=O)N[C@H]2CC[C@H](N[C@H](C)C(F)(F)F)CC2)nc(-n2ccnc2)n1` [Example 23, 2-(1H-imidazol-1-yl)-6-methyl-N-((1R,4r)-4-(((R)-1,1,1-trifluoropropan-2-yl)amino)cyclohexyl)pyrimidine-4-carboxamide]: the IC50 on Recombinant mouse CD38 and on Recombinant human CD38 was not above 40 nM in each case.
As to `O=C(N[C@H]1CC[C@H](NCC(F)(F)F)CC1)c1cc(C2CC2)cc(-n2ccnc2)n1` [Example 20, 4-cyclopropyl-6-(1H-imidazol-1-yl)-N-((1r,4r)-4-((2,2,2-trifluoroethyl)amino)cyclohexyl)picolinamide], the IC50 on Recombinant mouse CD38 is not above 40 nM; on Recombinant human CD38, not above 100 nM.
